Key:
Format in all cases: cell-based
HL60 (leukemia) = assay: Cytotoxicity assay for payloads (MTS), HL60; details: Homo sapiens, HL-60, 96 h, HL60 cells, four days incubation, read-out: Free payload potency (IC50), HL60
Description: (§1) Cancer cell lines were obtained from ATCC (Manassas, Va.). N87 (human gastric carcinoma derived from metastatic liver site). HL60 (leukemia) and MDA-MB-361 DYT2 (human breast carcinoma MDA-MB-361) were grown in RPMI 1640 media. All media were supplemented with 10% fetal bovine serum, 1% sodium pyruvate, and 1% L-glutamine (Invitrogen, Grand Island, N.Y.). Human umbilical vein endothelial cells (HUVEC) were obtained from Lonza (Allendale, N.J.) and maintained in EGM2 media supplemented with EGM-2 SingleQuots (Lonza #CC-4176). All cells were maintained in a humidified incubator (37° C., 5% CO2).
(§2) Cytotoxicity Assay Procedure for Payloads
(§3) Cells in 100 μl medium were cultured in a 96-well plate. Cancer cell lines treated with the indicated compounds by adding 50 μl of 3× stocks in duplicate at 10 concentrations. Cells were incubated with compounds for four days, then 30 μl of CellTiter® 96 AQueous One MTS Solution (Promega Cat #G3582) was added to the cells, incubated 1.5 hr at 37° C., then absorbance measured at 490 nm on a Victor plate reader (Perkin Elmer, Waltham, Mass.). Relative cell viability was determined as a percentage of untreated control wells. IC50 values were calculated using four parameter logistic model #203 with XLfit v4.2 (IDBS, Guildford, Surry, UK).

[1] = test system: N87 (human gastric carcinoma); assay: Cytotoxicity assay for payloads (MTS), N87; details: 96 h, N87 cells, four days incubation, read-out: Free payload potency (IC50), N87
Description: as §1, §2, §3

[2] = test system: MDA-MB-361 DYT2 (human breast carcinoma); assay: Cytotoxicity assay for payloads (MTS), MDA-MB-361 DYT2; details: 96 h, MDA-MB-361 DYT2 cells, four days incubation, read-out: Free payload potency (IC50), DYT2
Description: as §1, §2, §3

SMILES	IC50 (HL60 (leukemia))	IC50 [1]	IC50 [2]
[2H]C([2H])(C(=O)N1C[C@@H](CCl)c2c1cc(OC(C)=O)c1scc(C)c21)C([2H])([2H])C([2H])([2H])C(=O)N1C[C@@H](CCl)c2c1cc(OC(C)=O)c1scc(C)c21 [Compound 89]	0.302 nM	0.041 nM	0.002 nM
CC(=O)Oc1cc2c(c3c(C)csc13)[C@H](CCl)CN2C(=O)C12C3C4C1C1C2C3C41C(=O)N1C[C@@H](CCl)c2c1cc(OC(C)=O)c1scc(C)c21 (stereo partly drawn) [Compound 60, pentacyclo[4.2.0.0^˜2,5^˜.0^˜3,8^˜.0^˜4,7^˜]octane-1,4-diylbis[carbonyl(8S)-8-(chloromethyl)-1-methyl-7,8-dihydro-6H-thieno[3,2-e]indole-6,4-diyl]diacetate]	0.009 nM	0.122 nM	0.079 nM
[2H]C([2H])(CC([2H])([2H])C(=O)N1C[C@@H](CCl)c2c1cc(OC(C)=O)c1scc(C)c21)C(=O)N1C[C@@H](CCl)c2c1cc(OC(C)=O)c1scc(C)c21 [Compound 88]	0.41 nM	0.041 nM	0.004 nM
[2H]C([2H])(CC(=O)N1C[C@@H](CCl)c2c1cc(OC(C)=O)c1scc(C)c21)CC(=O)N1C[C@@H](CCl)c2c1cc(OC(C)=O)c1scc(C)c21 [Compound 87]	0.349 nM	0.036 nM	0.002 nM
